Experimental data reported in ChEMBL document CHEMBL5316286, “Inhibition of the Ubiquitin Transfer Cascade by a Peptidomimetic Foldamer Mimicking the E2 N-Terminal Helix” (J Med Chem, 2023).
Values belong to the compound of their own block, whether it stands above or below them. Activity calls are given as the source filed them. No cut-off for these calls is given here. *1 amine or outer side, *2 acyl side, *3 side chain or, on linkers, in order; H or OH if unused. Where a SMILES comes first, the peptide text is derived from it. [ ]: non-standard residue; d: D form. X1 = N=C(N)CCCC[C@H](N[*:1])C(=O)[*:2]

What was measured:
HEK293 = experiment: Cytotoxicity against HEK293 cells assessed as cell membrane disruption upto 100 uM incubated for 24 hrs by DAPI/PI staining based confocal microscopy; format: toxicity; conditions: human, hek293, 24 h
Erythrocyte = experiment: Hemolytic activity in human RBC assessed as cell membrane disruption upto 400 uM incubated for 1 hr by microplate reader analysis; format: toxicity, cell-based
[1] = target: T1, E3 ubiquitin-protein ligase CHIP (Homo sapiens) (UniProt Q9UNE7); experiment: Inhibition of CHIP-mediated CDK4 ubiquitination in HEK293T cells upto 50 uM preincubated for 14 hrs followed by MG132 addition measured after 12 hrs by Western blot analysis; format: cell-based; conditions: time 26.0 hrs
T1 sequence (whole entry): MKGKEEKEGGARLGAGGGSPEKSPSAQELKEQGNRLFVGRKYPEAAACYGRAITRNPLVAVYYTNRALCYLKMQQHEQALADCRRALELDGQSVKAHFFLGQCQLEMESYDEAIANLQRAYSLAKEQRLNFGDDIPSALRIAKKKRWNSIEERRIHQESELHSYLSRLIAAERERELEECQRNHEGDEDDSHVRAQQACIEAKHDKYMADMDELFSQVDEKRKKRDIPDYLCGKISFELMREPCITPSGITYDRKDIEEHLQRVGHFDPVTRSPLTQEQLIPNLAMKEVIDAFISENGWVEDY

[2] = Aggregation propensity of the compound in D2O assessed as signal shift at 1 mM measured for 24 hrs by 1H-NMR analysis; format: physicochemical; conditions: 1000 µM
[3] = target: T1, E3 ubiquitin-protein ligase CHIP (Homo sapiens); experiment: (§1) Inhibition of N-terminal Flag-tagged full-length U-box E3 CHIP (unknown origin) self-ubiquitination expressed in Escherichia coli BL21 (DE3) cells assessed as decrease in polyubiquitination at 50 uM preincubated for 30 mins followed by ubiquitin addition measured after 1 hr by Western blot analysis; conditions: time 90.0 min
[4] = Stability of compound in human serum at 1 mg incubated for 24 hrs by HPLC analysis; format: ADME, cell-free
[5] = target: T1, E3 ubiquitin-protein ligase CHIP (Homo sapiens); experiment: Inhibition of CHIP (unknown origin) self-ubiquitination upto 50 uM in presence of ubiquitin-preloaded UbcH5B by Western blot analysis
[6] = target: T1, E3 ubiquitin-protein ligase CHIP (Homo sapiens); experiment: Inhibition of N-terminal Flag-tagged full-length U-box E3 CHIP (unknown origin)-mediated CDK4 monoubiquitination expressed in Escherichia coli BL21 (DE3) cells upto 50 uM preincubated for 30 mins followed by ubiquitin addition measured after 1 hr by Western blot analysis; conditions: time 90.0 min
[7] = target: Cyclin-dependent kinase 4 (Homo sapiens) (UniProt P11802); experiment: Inhibition of CDK4 ubiquitination in HEK293 cells overexpressing CHIP upto 50 uM by Western blot analysis; format: cell-based
[8] = Stability of compound in ammonium bicarbonate buffer at pH 7.8 at 0.1 mg/ml incubated for 24 hrs by HPLC/MS analysis; format: physicochemical; conditions: pH 7.8, 24 h
[9] = Aggregation propensity of the compound in D2O assessed as signal shift at 1 mM measured after 10 days by 1H-NMR analysis; format: physicochemical; conditions: 240 h, 1000 µM, time 10 day
Homo sapiens = organism: Homo sapiens; experiment: Disruption of Uba1/UbcH5B (unknown origin) interaction assessed as inhibition of UbcH5B-ubiquitin conjugate formation at 50 uM preincubated for 30 mins followed by ubiquitin addition measured after 30 mins by Western blot analysis
[10] = target: T1, E3 ubiquitin-protein ligase CHIP (Homo sapiens); experiment: as §1, with “polyubiquitination at upto 50 uM” for “polyubiquitination at 50 uM”; conditions: time 90.0 min
[11] = target: T2, Ubiquitin-like modifier-activating enzyme 1 (Homo sapiens) (UniProt P22314); experiment: Binding affinity to His-tagged Uba1 (unknown origin)-coated Ni-NTA beads assessed as measuring green fluorescence at 10 uM incubated for 30 mins by laser scanning microscopy
T2 sequence (whole entry): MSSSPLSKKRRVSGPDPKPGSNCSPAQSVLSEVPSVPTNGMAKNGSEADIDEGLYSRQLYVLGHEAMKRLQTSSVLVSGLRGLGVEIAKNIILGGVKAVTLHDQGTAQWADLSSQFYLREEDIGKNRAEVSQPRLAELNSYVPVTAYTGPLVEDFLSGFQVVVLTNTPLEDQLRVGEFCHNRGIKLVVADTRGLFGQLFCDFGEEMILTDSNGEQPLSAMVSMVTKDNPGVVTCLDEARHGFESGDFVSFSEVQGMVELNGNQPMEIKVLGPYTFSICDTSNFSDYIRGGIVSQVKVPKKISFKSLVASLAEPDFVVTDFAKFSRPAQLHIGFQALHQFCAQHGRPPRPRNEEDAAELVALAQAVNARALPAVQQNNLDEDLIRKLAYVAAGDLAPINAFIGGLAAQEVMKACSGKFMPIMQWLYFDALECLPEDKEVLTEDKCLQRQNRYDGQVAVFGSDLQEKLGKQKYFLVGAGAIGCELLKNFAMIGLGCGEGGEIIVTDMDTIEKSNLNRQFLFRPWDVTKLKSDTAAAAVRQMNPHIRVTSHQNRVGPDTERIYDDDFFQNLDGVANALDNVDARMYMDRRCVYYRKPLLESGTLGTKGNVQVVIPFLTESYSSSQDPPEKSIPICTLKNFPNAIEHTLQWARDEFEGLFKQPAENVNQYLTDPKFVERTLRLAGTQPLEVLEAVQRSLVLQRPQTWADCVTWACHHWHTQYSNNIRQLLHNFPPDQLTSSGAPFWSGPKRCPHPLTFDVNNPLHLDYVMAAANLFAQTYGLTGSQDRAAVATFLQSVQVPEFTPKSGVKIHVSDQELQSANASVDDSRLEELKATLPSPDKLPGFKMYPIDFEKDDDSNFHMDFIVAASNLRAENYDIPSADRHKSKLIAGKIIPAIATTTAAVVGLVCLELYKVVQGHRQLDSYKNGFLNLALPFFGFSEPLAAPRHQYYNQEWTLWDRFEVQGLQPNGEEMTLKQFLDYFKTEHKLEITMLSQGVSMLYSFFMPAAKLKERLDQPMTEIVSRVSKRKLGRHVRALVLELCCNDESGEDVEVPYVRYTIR

[12] = target: T1, E3 ubiquitin-protein ligase CHIP (Homo sapiens); experiment: Inhibition of N-terminal Flag-tagged full-length U-box E3 CHIP (unknown origin) self-ubiquitination expressed in Escherichia coli BL21 (DE3) cells assessed as inhibition of Uba1-UbcH5B-CHIP cascade at upto 50 uM preincubated for 30 mins followed by ubiquitin addition measured after 1 hr by Western blot analysis; conditions: time 90.0 min

Cyclin-dependent kinase 4 (Homo sapiens), sequence (P11802 whole entry): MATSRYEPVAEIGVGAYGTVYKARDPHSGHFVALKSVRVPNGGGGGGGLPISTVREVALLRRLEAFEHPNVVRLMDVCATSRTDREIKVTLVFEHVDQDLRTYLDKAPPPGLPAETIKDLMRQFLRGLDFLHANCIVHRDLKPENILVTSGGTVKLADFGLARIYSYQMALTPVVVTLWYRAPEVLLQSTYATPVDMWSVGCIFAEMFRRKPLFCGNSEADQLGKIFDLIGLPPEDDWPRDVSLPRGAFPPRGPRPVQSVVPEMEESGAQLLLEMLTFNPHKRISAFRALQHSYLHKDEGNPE

- Stability [4]: Stable
- Stability [8]: Stable
SMILES: CC[C@H](C)[C@H](NC(=O)[C@H](CCC(=O)O)NC(=O)[C@H](CCCCN)NC(=O)[C@H](CCSC)NC(=O)[C@@H](NC(=O)[C@H](CCCNC(=N)N)NC(=O)[C@H](CCCCN)NC(=O)[C@H](C)NC(=O)[C@H](CCCCC(=N)N)NC(=O)[C@H](CO)NC(=O)[C@H](CO)NC(C)=O)[C@@H](C)CC)C(=O)N[C@@H](CCC(N)=O)C(=O)N[C@@H](C)C(=O)N[C@H](C(=O)N[C@@H](CCCCN)C(=O)N[C@@H](CC(=O)O)C(N)=O)C(C)C (Ac-SS[X1]AKRIMKEIQAVKD-NH2)

- Activity [11]: inactive
- inhibition [12]: inactive
SMILES: COc1ccc(S(=O)(=O)N(CC(=O)N[C@@H](CCCCN)CN(CC(=O)N[C@@H](CCCCN)CN(CC(=O)N[C@@H](CC(C)C)CN(CC(=O)N[C@@H](CCCCN)CN(CC(=O)N[C@@H](CC(C)C)CN(CC(=O)N[C@@H](CCCCN)CN(CC(=O)N[C@@H](CC(C)C)CN(CC(N)=O)S(=O)(=O)CCN)S(C)(=O)=O)S(=O)(=O)CC(C)C)S(C)(=O)=O)S(=O)(=O)CCN)S(=O)(=O)CCN)S(C)(=O)=O)C[C@H](CCCCN)NC(C)=O)cc1

- inhibition [12]: inactive
SMILES: CC(=O)N[C@H](CO)CN(CC(=O)N[C@H](C)CN(CC(=O)N[C@H](CCCCN)CN(CC(=O)N[C@H](CC(C)C)CN(CC(=O)N[C@H](CCCCN)CN(CC(=O)N[C@H](CC(C)C)CN(CC(=O)N[C@H](CCC(=O)O)CN(CC(=O)N[C@H](CCCCN)CN(CC(N)=O)S(=O)(=O)CCN)S(=O)(=O)CC(C)C)S(=O)(=O)CCN)S(C)(=O)=O)S(=O)(=O)CCN)S(=O)(=O)CCN)S(=O)(=O)CC(C)C)S(=O)(=O)CC(C)C

- inhibition [6]: inactive
- inhibition [10]: inactive
SMILES: CC(=O)N[C@H](CO)CN(CC(=O)N[C@@H]1CCCCNC(=O)c2ccc(cc2)C(=O)NCCCC[C@H](CN(CC(=O)N[C@H](CCCCN)CN(CC(=O)N[C@H](CC(C)C)CN(CC(=O)N[C@H](CCC(=O)O)CN(CC(=O)N[C@H](CCCCN)CN(CC(N)=O)S(=O)(=O)CCN)S(=O)(=O)CC(C)C)S(=O)(=O)CCN)S(C)(=O)=O)S(C)(=O)=O)NC(=O)CN(S(=O)(=O)CCN)C[C@@H](CCCCN)NC(=O)CN(S(C)(=O)=O)C1)S(=O)(=O)CC(C)C

More lines, now with the values behind:

SMILES: COc1ccc(S(=O)(=O)N(CC(=O)N[C@@H]2CCCCNC(=O)c3ccc(cc3)C(=O)NCCCC[C@H](CN(CC(=O)N[C@H](CCCCN)CN(CC(=O)N[C@H](CC(C)C)CN(CC(=O)N[C@H](CCCCN)CN(CC(=O)N[C@H](CC(C)C)CN(CC(N)=O)S(=O)(=O)CCN)S(C)(=O)=O)S(=O)(=O)CC(C)C)S(C)(=O)=O)S(C)(=O)=O)NC(=O)CN(S(=O)(=O)CCN)C[C@@H](CCCCN)NC(=O)CN(S(C)(=O)=O)C2)C[C@@H](CCCCN)NC(C)=O)cc1
- Activity (HEK293): Non-Toxic
- Activity (Erythrocyte): Non-Toxic
- inhibition [1]: Active
- Activity [2]: Not Active
- inhibition [3]: Active
- Stability [4]: Stable
- inhibition [5]: inactive
- inhibition [6]: Active
- inhibition [7]: Active
- Stability [8]: Stable
- Activity [9]: Active
- inhibition (Homo sapiens): Active

SMILES: CC(=O)N[C@H](CO)CN(CC(=O)N[C@H](C)CN(CC(=O)N[C@H](CCCCN)CN(CC(=O)N[C@@H]1CCCCNC(=O)c2ccc(cc2)C(=O)NCCCC[C@H](CN(CC(=O)N[C@H](CCC(=O)O)CN(CC(=O)N[C@H](CCCCN)CN(CC(N)=O)S(=O)(=O)CCN)S(=O)(=O)CC(C)C)S(C)(=O)=O)NC(=O)CN(S(C)(=O)=O)C[C@@H](CCCCN)NC(=O)CN(S(C)(=O)=O)C1)S(=O)(=O)CCN)S(=O)(=O)CC(C)C)S(=O)(=O)CC(C)C
- inhibition [6]: inactive
- inhibition [10]: inactive

SMILES: CC(=O)N[C@H](CO)CN(CC(=O)N[C@H](C)CN(CC(=O)N[C@H](CCCCN)CN(CC(=O)N[C@H](CC(C)C)CN(CC(=O)N[C@H](CCCCN)CN(CC(=O)N[C@@H]1CCCCNC(=O)c2ccc(cc2)C(=O)NCCCC[C@H](CN(CC(N)=O)S(C)(=O)=O)NC(=O)CN(S(=O)(=O)CC(C)C)C[C@@H](CCC(=O)O)NC(=O)CN(S(C)(=O)=O)C1)S(C)(=O)=O)S(=O)(=O)CCN)S(=O)(=O)CCN)S(=O)(=O)CC(C)C)S(=O)(=O)CC(C)C
- inhibition [6]: inactive
- inhibition [10]: inactive

SMILES: COc1ccc(S(=O)(=O)N(CC(=O)N[C@H](CCCCN)CN(CC(=O)N[C@H](CCCCN)CN(CC(=O)N[C@H](CC(C)C)CN(CC(=O)N[C@H](CCCCN)CN(CC(=O)N[C@@H]2CCCCNC(=O)c3ccc(cc3)C(=O)NCCCC[C@H](CN(CC(N)=O)S(C)(=O)=O)NC(=O)CN(S(C)(=O)=O)C[C@@H](CCCCN)NC(=O)CN(S(C)(=O)=O)C2)S(C)(=O)=O)S(=O)(=O)CCN)S(=O)(=O)CCN)S(C)(=O)=O)C[C@@H](CCCCN)NC(C)=O)cc1
- inhibition [3]: Active
- inhibition [6]: inactive
